The values below come from patent publication US9611248B2, “Chemical compounds” (Syngenta Participations AG, priority 2013, dated 2017).

The test system of the experiment is a variety of test species. Put plainly: Post-emergence herbicidal activity. Type of experiment: in vivo. Further details: key to ABUTH (Abutilon theophrasti) damage score / AMARE (Amaranthus retroflexus) damage score / ALOMY (Alopecurus myosuroides) damage score / ECHCG (Echinochloa crus-galli) damage score / ZEAMX (Zea mays) damage score / SOLNI (Solanum nigrum) damage score: 0 = no damage to plant, 5 = total damage to plant. The conditions noted are these: rate 1000 g/ha, evaluated after 13 days. As for the experimental part: Seeds of a variety of test species were sown in standard soil in pots. After 8 days cultivation (post-emergence) under controlled conditions in a glasshouse (at 24/16° C., day/night; 14 hours light; 65% humidity), the plants were sprayed with an aqueous spray solution derived from the formulation of the technical active ingredient in acetone/water (50:50) solution containing 0.5% Tween 20 (polyoxyethelyene sorbitan monolaurate, CAS RN 9005-64-5). The test plants were then grown in a glasshouse under controlled conditions (at 24/16° C., day/night; 14 hours light; 65% humidity) and watered twice daily. After 13 days, the test was evaluated (5=total damage to plant; 0=no damage to plant, NC=not captured).
With `CCc1cc(N2C(=O)C(C)=C(OC)C2O)ncc1-c1cccc(F)c1` (stereo not drawn) [AD108], the “ABUTH (Abutilon theophrasti) damage score” value (from here on “ABUTH”) was 5, the “ALOMY (Alopecurus myosuroides) damage score” value (from here on “ALOMY”) was 3, the “AMARE (Amaranthus retroflexus) damage score” value (from here on “AMARE”) amounted to 5 and the “ECHCG (Echinochloa crus-galli) damage score” value (from here on “ECHCG”) was 3. In addition, the “SETFA (Setaria faberi) damage score” value was found to be 5 and the “ZEAMX (Zea mays) damage score” value is reported as 0.
As to `CC1=C(Cl)C(O)N(c2cc(C#N)ccn2)C1=O` (stereo not drawn) [AA20], the “ABUTH” value was found to be 1, the “ALOMY” value is listed as 1, the “AMARE” value amounted to 0 and the “ECHCG” value is 1. The “SETFA (Setaria faberi) damage score” value amounted to 1 and the “ZEAMX (Zea mays) damage score” value was 0.
On to `COC1=C(C)C(=O)N(c2nccc(C(F)(F)F)c2C#N)C1O` (stereo not drawn) [AD5], for which the “ABUTH” value was found to be 5, the “ALOMY” value amounted to 4, the “AMARE” value was found to be 5 and the “ECHCG” value is listed as 4. In addition, the “SETFA (Setaria faberi) damage score” value came out at 4 and the “ZEAMX (Zea mays) damage score” value is given as 2.
In the case of `COC1=C(C)C(=O)N(c2cc(C(F)(F)Cl)ccn2)C1O` (stereo not drawn) [AD67], the “ABUTH” value turned out to be 5, the “ALOMY” value is given as 4, the “AMARE” value stood at 5 and the “ECHCG” value came to 5. Further, the “SETFA (Setaria faberi) damage score” value was 5 and the “ZEAMX (Zea mays) damage score” value is listed as 1.
For the compound `COC1=C(C)C(=O)N(c2cc(C(F)(F)F)c(OCC3CCCO3)cn2)C1O` (stereo not drawn) [AD57], the “ABUTH” value came to 5, the “ALOMY” value amounted to 4, the “AMARE” value was 5 and the “ECHCG” value stood at 5. Further, the “SETFA (Setaria faberi) damage score” value came out at 5 and the “ZEAMX (Zea mays) damage score” value worked out at 1.
Turning to `CCOC1=C(C)C(=O)N(c2cc(C(F)(F)F)ccn2)C1O` (stereo not drawn) [AD45, 3-ethoxy-2-hydroxy-4-methyl-1-[4-(trifluoromethyl)-2-pyridyl]-2H-pyrrol-5-one], the “ABUTH” value is reported as 5, the “ALOMY” value is on record as 4, the “AMARE” value is listed as 5 and the “ECHCG” value is 5. The “SETFA (Setaria faberi) damage score” value came out at 3 and the “ZEAMX (Zea mays) damage score” value is 1.
Consider `CC1=C(Cl)C(O)N(c2cc(C(F)(F)F)c(Cl)cn2)C1=O` (stereo not drawn) [AA26], for which the “ABUTH” value came to 1, the “ALOMY” value was 2, the “AMARE” value turned out to be 5 and the “ECHCG” value was determined as 3. The “SETFA (Setaria faberi) damage score” value was determined as 3 and the “ZEAMX (Zea mays) damage score” value amounted to 0.
In the case of `COC1=C(C)C(=O)N(c2nccc(C(F)(F)F)c2F)C1O` (stereo not drawn) [AD7], the “ABUTH” value stood at 5, the “ALOMY” value was determined as 5, the “AMARE” value was determined as 5 and the “ECHCG” value turned out to be 5. In addition, the “SETFA (Setaria faberi) damage score” value is 5 and the “ZEAMX (Zea mays) damage score” value is listed as 3.
As for `COC1=C(C)C(=O)N(c2cc(C(F)(F)F)c(C#N)cn2)C1O` (stereo not drawn) [AD26, 6-(2-hydroxy-3-methoxy-4-methyl-5-oxo-2H-pyrrol-1-yl)-4-(trifluoromethyl)pyridine-3-carbonitrile], the “ABUTH” value was 5, the “ALOMY” value turned out to be 4, the “AMARE” value is on record as 5 and the “ECHCG” value came to 5. For the same compound, the “SETFA (Setaria faberi) damage score” value is given as 4 and the “ZEAMX (Zea mays) damage score” value worked out at 2.
Take `COC1=C(C)C(=O)N(c2cc(C(F)(F)F)c(Cl)cn2)C1O` (stereo not drawn) [AD30]: the “ABUTH” value is recorded as 5, the “ALOMY” value was determined as 5, the “AMARE” value worked out at 5 and the “ECHCG” value was determined as 5. For the same compound, the “SETFA (Setaria faberi) damage score” value is recorded as 4 and the “ZEAMX (Zea mays) damage score” value amounted to 1.
Turning to `COC1=C(C)C(=O)N(c2cc(C(F)(F)F)c(OCCOC(C)(C)C)cn2)C1O` (stereo not drawn) [AD80], the “ABUTH” value was 4, the “ALOMY” value is listed as 3, the “AMARE” value was determined as 5 and the “ECHCG” value turned out to be 4. The “SETFA (Setaria faberi) damage score” value worked out at 5 and the “ZEAMX (Zea mays) damage score” value turned out to be 1.
